From ChEMBL document CHEMBL1201862, “PubChem BioAssay data set” (2004) come the findings set out here.

SMILES strings stand for the structures. Counter-ions that a name gives are not always drawn. Calls of active or inactive are those of the source. Some results are limits rather than exact numbers.

Assay [1] deals with T1, Heat shock factor protein 1 (Mus musculus, UniProt P38532).
T1 sequence (P38532 whole entry): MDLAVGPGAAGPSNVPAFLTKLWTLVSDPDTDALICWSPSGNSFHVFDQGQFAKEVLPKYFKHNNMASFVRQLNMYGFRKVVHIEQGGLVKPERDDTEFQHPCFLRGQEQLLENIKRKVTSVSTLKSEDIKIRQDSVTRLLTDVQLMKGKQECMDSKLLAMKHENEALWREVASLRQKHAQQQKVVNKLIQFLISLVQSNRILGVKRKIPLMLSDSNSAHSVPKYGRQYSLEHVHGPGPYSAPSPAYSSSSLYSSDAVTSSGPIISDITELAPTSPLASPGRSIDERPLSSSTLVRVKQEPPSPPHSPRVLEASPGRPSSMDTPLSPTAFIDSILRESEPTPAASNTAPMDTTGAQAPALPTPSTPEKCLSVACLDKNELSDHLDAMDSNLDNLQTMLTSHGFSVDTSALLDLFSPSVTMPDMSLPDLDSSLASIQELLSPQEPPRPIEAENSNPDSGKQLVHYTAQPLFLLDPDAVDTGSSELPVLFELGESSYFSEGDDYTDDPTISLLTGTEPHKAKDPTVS
In words: decrease of HSF1-responsive luciferase luminescence – cell-based, NIH3T3, dose retest, confirmation (AID 2382).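 Note: NIH3T3 fibroblasts with HSF1-driven luciferase reporter stressed by proteasome inhibitor MG132; luminescence from HSF1-driven luciferase expression after 8 hours of MG132 stress.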 The class given is functional.

Another assay deals with Prothrombin (Homo sapiens, UniProt P00734). Description: Thrombin 1536 HTS Dose Response Confirmation. [Related pubchem assays: 1046 (Thrombin 1536 HTS; hits were confirmed in this assay)]. It counts as functional.
Another assay addresses T2, Estrogen receptor (Homo sapiens, UniProt P03372).
T2 sequence (P03372 whole entry): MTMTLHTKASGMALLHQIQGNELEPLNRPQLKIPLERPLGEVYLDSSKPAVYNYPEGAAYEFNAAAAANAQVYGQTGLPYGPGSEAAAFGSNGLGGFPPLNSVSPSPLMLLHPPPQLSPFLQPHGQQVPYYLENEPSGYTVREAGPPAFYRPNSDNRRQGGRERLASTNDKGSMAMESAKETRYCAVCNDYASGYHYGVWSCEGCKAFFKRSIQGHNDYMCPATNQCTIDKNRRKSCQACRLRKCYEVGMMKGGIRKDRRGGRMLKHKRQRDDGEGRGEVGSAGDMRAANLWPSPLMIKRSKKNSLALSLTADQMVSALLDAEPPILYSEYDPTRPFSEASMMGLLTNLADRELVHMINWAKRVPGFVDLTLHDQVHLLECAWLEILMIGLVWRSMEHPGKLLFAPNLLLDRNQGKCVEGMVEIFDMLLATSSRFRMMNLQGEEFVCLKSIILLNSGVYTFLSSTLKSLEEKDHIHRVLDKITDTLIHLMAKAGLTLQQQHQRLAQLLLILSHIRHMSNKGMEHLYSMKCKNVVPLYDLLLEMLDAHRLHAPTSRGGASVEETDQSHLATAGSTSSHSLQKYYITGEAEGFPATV

Assay [2] can be described thus: SNU-C1 cell viability reduction, dose response, CellTiter-Glo luminescence (AID 1117323). It counts as functional, cell-based. In general terms: Cellular ATP, detected with luciferase, serves as a proxy for viable cell number.
The nature of assay [3]: HCT116 cell viability decrease, GSK3B pretreatment – CellTiter-Glo, IC50, dose response (AID 1117339). It counts as functional. Particulars: HCT-116.
Assay [4] is described as follows: RKO cell viability reduction, dose response, CellTiter-Glo luminescence (AID 1117322). The class given is functional.
Another assay concerns the target T3, Cytochrome P450 1A2 (Homo sapiens, UniProt P05177).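 Note: PubChem cytochrome P450 panel assay, CYP1A2 panel member.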
T3 sequence (P05177 whole entry): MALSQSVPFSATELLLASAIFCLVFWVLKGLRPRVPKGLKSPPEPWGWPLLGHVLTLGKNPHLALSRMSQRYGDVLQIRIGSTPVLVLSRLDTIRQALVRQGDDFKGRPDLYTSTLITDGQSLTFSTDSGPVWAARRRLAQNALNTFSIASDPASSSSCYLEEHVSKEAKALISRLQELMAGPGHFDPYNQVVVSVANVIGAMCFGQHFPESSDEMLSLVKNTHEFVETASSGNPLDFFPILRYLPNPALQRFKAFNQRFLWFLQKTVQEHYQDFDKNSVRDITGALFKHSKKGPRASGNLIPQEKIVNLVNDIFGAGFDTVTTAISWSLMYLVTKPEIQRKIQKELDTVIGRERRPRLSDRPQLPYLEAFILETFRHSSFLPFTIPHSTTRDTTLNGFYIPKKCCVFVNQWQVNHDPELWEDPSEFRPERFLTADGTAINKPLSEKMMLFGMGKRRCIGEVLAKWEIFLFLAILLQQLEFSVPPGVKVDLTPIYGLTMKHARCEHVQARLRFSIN

Assay [5] is described as follows: cytotoxicity toward HT-29 cells – cell-based, CellTiter-Glo luminescence, IC50, dose response (AID 1117330). The class given is functional.
The nature of assay [6]: Reduced DLD-1 viability, concentration-response, CellTiter-Glo luminescence (AID 1117352). It counts as functional.
Assay [7] can be described thus: CellTiter-Glo luminescence survival assay, SW480 colon tumor line, concentration-response curve, half-maximal inhibitory concentration (AID 1117338). It counts as functional.
Assay [8] is described as follows: cytotoxicity toward HCT116 cells – cell-based, CellTiter-Glo luminescence, IC50, dose response (AID 1117332). It counts as functional. Particulars: HCT-116.
A short description of assay [9]: cytotoxicity toward Colo320 cells – cell-based, CellTiter-Glo luminescence, IC50, dose response (AID 1117334). It counts as functional. Particulars: COLO 320.
The target in another assay is Cytochrome P450 2D6 (Homo sapiens, UniProt P10635).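 Note: CYP2D6 member of a cytochrome P450 panel assay.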
Cytochrome P450 2D6, sequence (P10635 whole entry): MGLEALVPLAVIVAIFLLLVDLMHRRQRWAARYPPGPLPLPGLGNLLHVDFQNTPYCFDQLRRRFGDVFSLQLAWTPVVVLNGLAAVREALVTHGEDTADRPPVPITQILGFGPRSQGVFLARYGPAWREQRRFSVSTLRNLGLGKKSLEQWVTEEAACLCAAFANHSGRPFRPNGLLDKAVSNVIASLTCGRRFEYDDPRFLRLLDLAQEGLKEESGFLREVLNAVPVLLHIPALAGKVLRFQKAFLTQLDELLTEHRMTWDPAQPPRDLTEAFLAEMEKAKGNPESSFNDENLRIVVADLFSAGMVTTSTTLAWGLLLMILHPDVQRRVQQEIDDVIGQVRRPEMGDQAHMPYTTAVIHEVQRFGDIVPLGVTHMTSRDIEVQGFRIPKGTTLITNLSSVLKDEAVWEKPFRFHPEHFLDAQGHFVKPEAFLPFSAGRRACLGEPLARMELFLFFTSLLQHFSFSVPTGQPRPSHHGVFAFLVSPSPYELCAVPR
For another assay, the target named is T4, Aminopeptidase N (Plasmodium falciparum FcB1/Columbia, UniProt O96935).
T4 sequence (O96935 whole entry): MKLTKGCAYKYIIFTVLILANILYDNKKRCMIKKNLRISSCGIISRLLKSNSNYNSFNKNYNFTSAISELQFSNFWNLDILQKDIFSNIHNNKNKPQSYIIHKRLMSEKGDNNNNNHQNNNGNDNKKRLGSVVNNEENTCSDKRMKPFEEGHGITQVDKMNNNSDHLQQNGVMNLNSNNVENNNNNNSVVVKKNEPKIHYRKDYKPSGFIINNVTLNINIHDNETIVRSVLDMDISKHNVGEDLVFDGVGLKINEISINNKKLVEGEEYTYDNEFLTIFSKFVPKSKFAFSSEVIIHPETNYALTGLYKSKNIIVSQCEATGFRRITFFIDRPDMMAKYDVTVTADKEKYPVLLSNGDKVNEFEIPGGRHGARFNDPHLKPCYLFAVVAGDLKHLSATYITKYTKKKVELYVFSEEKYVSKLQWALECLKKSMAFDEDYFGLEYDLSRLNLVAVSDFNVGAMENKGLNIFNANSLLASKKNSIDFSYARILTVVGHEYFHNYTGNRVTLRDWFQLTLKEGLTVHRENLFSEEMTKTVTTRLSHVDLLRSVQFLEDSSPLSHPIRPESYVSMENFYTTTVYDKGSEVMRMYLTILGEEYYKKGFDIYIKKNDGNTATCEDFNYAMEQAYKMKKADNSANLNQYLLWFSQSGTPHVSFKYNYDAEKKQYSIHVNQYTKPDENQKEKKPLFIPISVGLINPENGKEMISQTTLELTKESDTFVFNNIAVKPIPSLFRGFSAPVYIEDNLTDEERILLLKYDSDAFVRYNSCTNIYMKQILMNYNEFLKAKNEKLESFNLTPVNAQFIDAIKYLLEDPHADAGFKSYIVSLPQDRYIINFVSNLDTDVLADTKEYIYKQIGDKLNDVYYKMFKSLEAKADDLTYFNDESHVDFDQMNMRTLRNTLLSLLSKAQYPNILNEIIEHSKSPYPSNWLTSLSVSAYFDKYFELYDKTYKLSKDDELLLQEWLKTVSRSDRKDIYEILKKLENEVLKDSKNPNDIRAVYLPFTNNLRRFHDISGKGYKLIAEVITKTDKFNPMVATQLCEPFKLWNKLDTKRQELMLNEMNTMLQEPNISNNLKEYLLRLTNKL
In words: malaria alanyl aminopeptidase activity blockers – biochemical, fluorogenic H-Leu-NHMec substrate, 1536-well (AID 1445). The arrangement: species or system Plasmodium falciparum 3D7, 3D7.

The target of another assay is Estrogen receptor beta (Homo sapiens, UniProt Q92731).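 Note: recombinant ER-beta bound to coactivator SRC1 peptide in presence of estradiol agonist; inhibitors block coactivator peptide binding and lower the FRET signal.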
Estrogen receptor beta, sequence (Q92731 whole entry): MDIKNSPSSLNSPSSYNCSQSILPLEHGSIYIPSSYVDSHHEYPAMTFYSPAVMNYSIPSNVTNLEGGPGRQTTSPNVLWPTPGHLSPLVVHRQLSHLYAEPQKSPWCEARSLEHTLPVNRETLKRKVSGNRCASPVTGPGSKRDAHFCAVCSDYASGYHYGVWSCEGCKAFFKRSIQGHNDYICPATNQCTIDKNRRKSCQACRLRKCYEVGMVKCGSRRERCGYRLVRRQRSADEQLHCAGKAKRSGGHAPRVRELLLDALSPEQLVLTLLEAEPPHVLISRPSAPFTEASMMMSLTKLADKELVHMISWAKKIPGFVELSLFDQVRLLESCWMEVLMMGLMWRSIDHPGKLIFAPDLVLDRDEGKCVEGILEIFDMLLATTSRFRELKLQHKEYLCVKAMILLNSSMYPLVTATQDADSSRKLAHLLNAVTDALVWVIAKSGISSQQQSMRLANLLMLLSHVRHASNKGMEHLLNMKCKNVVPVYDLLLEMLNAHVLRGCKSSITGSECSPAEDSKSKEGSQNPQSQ
The target in assay [10] is T5, Ubiquitin-conjugating enzyme E2 N (Homo sapiens, UniProt P61088).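 Note: Dose-response confirmation in a TR-FRET assay detecting UBC13-driven polyubiquitin chain formation, inhibition measured.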
T5 sequence (P61088 whole entry): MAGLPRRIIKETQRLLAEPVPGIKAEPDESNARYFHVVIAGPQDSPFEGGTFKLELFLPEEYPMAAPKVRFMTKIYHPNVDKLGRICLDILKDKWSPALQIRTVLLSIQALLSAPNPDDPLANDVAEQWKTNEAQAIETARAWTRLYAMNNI
It counts as functional.

For assay [11], the target named is T6, DNA repair protein RAD52 homolog (Homo sapiens, UniProt P43351).
T6 sequence (P43351 whole entry): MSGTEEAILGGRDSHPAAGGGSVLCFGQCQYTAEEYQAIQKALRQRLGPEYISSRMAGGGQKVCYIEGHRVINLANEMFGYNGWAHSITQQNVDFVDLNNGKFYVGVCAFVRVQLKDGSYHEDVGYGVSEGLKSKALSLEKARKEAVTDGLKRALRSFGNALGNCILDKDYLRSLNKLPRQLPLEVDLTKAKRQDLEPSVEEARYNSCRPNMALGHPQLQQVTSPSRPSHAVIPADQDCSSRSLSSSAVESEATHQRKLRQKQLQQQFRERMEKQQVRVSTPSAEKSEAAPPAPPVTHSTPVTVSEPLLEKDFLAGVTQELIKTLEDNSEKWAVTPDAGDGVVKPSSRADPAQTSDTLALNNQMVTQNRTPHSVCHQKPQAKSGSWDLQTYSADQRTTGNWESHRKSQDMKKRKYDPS
The class given is functional, biochemical.

The term EC50 denotes the concentration giving half of the maximal effect. A higher EC50 goes with weaker potency. In general, IC50 refers to the concentration that inhibits the measured activity by half. As a reminder, the AC50 is the concentration giving half of the maximal activity seen.

As for `Cc1occc1C(=O)Nc1cc(C(F)(F)F)ccc1Cl`, in assay [1], the EC50 is given as > 195 µM (not active). For the same compound, the IC50 on Prothrombin is on record as > 50 µM (not active).

With `C=CCn1c(SCC(=O)NC2CCCCC2)nnc1C(C)NC(=O)c1cccs1` (centres undefined), on Estrogen receptor, the IC50 is on record as > 50 µM (not active).

With `CN1CCN(CCCN2c3ccccc3Sc3ccc(S(=O)(=O)N(C)C)cc32)CC1` [THIOPROPERAZINE MESYLATE], the IC50 is 2.12 µM (active) in assay [2]; > 20 µM (inactive) in assay [3]; 5.99 µM (inactive) in assay [4]; > 20 µM (inactive) in [5]; 14.6 µM (inactive) in [6]; > 20 µM (inactive) in [7]. Further, the IC50 in assay [8] was > 20 µM (inactive); in assay [9], 8.17 µM (inactive). Besides, the AC50 at Cytochrome P450 1A2 is 12.6 µM (inconclusive); at Cytochrome P450 2D6, 6.31 µM (inconclusive).

`Cc1ccc(-c2nc(N)n(C(=O)Cc3ccccc3)n2)cc1`: on Prothrombin, the IC50 is 1.82 µM (active).

With `O=c1[nH]c2ccc(Br)cc2c(-c2ccccc2)c1CN1CCOCC1`, the IC50 at Aminopeptidase N was 54.2 µM (active).

Regarding `Cc1nn(Cc2ccccc2Cl)c(C)c1C(=O)NCc1ccco1`, on Estrogen receptor beta, the IC50 is listed as > 50 µM (not active).

As for `CCCCCCOC(=O)c1cccnc1`, the IC50 in [2], in [3], in assay [4], in assay [5], in assay [6] and in assay [7] was > 20 µM (inactive) throughout. Besides, the IC50 in assay [8] and in [9] was > 20 µM (inactive) in each case.

With `Cc1nc2ccccc2c(=O)n1NC(=O)c1cc(Br)ccc1Cl`, on Prothrombin, the IC50 is given as > 50 µM (not active).

For the compound `CN1CCN(C2Cc3ccccc3Sc3ccc(Cl)cc32)CC1` (centres undefined), the IC50 is 7.87 µM (inactive) in assay [2]; 8.4 µM (inactive) in assay [3]; > 20 µM (inactive) in [4]; > 20 µM (inactive) in assay [10]; 8 µM (inactive) in assay [5]; > 20 µM (inactive) in assay [6]. In addition, the figures for the IC50 in assay [7], in assay [8] and in [9] were 6.31 µM (inactive), 9.17 µM (inactive) and > 6.67 µM (inactive), respectively. The AC50 in assay [11] is 22.5 µM (active).

For the compound `CN(C)[C@@H](CCOc1cccc2ccccc12)c1ccccc1` [DAPOXETINE], the IC50 in [2] was 12.8 µM (inactive); in assay [3] it was 9.86 µM (inactive); in assay [4], 8.11 µM (inactive); in assay [5], > 20 µM (inactive); in assay [6], > 20 µM (inactive); in assay [7], > 20 µM (inactive). Moreover, the IC50 in assay [8] and in assay [9] was > 20 µM (inactive) throughout.

In the case of `Nc1nc(-c2cccnc2)nn1C(=O)c1ccccc1Cl`, the IC50 on Prothrombin was 0.0831 µM (active).

Regarding `CC(=O)NC(=O)c1ccccc1O` [SALACETAMIDE], the IC50 in assay [2], in [3], in [4], in [5], in assay [6] and in [7] was > 20 µM (inactive) throughout. For the same compound, the IC50 in [8] and in assay [9] was > 20 µM (inactive) throughout.

Regarding `O=c1[nH]c(SCc2ccccc2Cl)nc2n[nH]cc12`, on Aminopeptidase N, the IC50 was 9.3 µM (active).

On to `Cc1cccc(NC2=NC(=O)/C(=C3/C(=O)N(C)c4ccccc43)S2)c1C`, for which the IC50 against Estrogen receptor is 32.9 µM (not active).
